Source: ChEMBL document CHEMBL1201862, “PubChem BioAssay data set” (2004)
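Method: 48-hour compound exposure of cells in 96-well plates, five concentrations, linear interpolation of endpoints. Abbreviation: GI50, concentration required for 50% inhibition of growth.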 Activity calls are given as the source filed them. No stated cut-off is given here; in the data, active = GI50 up to about 1.1 µM and inactive = higher.

Columns and labels:
Assay in all cases: growth of human tumour cells (NCI), 48 h
[1] = tested on: K562
[2] = tested on: HOP-62
[3] = tested on: KM12
[4] = tested on: HCT-15
[5] = tested on: Malme-3M
[6] = tested on: M14
[7] = tested on: SNB-19
[8] = tested on: SN12C
[9] = tested on: Hs-578T
[10] = tested on: SK-MEL-28
[11] = tested on: OVCAR-4
[12] = tested on: DU-145
[13] = tested on: A549
[14] = tested on: HL-60
[15] = tested on: IGROV-1
[16] = tested on: UACC-62
[17] = tested on: OVCAR-5
[18] = tested on: PC-3
[19] = tested on: MOLT-4
[20] = tested on: SK-MEL-2
[21] = tested on: SK-MEL-5
[22] = tested on: CAKI-1
[23] = tested on: HCT-116
[24] = tested on: OVCAR-8
[25] = tested on: SK-OV-3
[26] = tested on: 786-0
[27] = tested on: MDA-MB-435
[28] = tested on: HOP-92
[29] = tested on: COLO 205
[30] = tested on: NCI-H23
[31] = tested on: MDA-MB-231
[32] = tested on: TK-10
[33] = tested on: T47D
[34] = tested on: SNB-75
[35] = tested on: ACHN
[36] = tested on: MCF7
[37] = tested on: HT-29
[38] = tested on: NCI-H522
[39] = tested on: NCI-H226
[40] = tested on: UO-31
[41] = tested on: SW-620
[42] = tested on: RPMI-8226
[43] = tested on: EKVX
[44] = tested on: MDA-N
[45] = tested on: A498
[46] = tested on: SF-539
[47] = tested on: BT-549
[48] = tested on: SF-295
[49] = tested on: SF-268
[50] = tested on: CCRF-CEM
[51] = tested on: U-251
[52] = tested on: UACC-257
[53] = tested on: NCI/ADR-RES
[54] = tested on: OVCAR-3
[55] = tested on: SR
[56] = tested on: NCI-H460
[57] = tested on: LOX IMVI

COc1ccccc1-n1nnc2c(N)nc(N)nc21
GI50 [1]: > 100 µM (inactive) | GI50 [2]: > 100 µM (inactive) | GI50 [3]: > 100 µM (inactive) | GI50 [4]: > 100 µM | GI50 [5]: > 100 µM (inactive) | GI50 [6]: > 100 µM (inactive) | GI50 [7]: > 100 µM (inactive) | GI50 [8]: > 100 µM (inactive) | GI50 [9]: > 100 µM (inactive) | GI50 [10]: > 100 µM (inactive) | GI50 [11]: > 100 µM (inactive) | GI50 [12]: > 100 µM (inactive) | GI50 [13]: > 100 µM (inactive) | GI50 [14]: > 100 µM (inactive) | GI50 [15]: > 100 µM (inactive) | GI50 [16]: > 100 µM (inactive) | GI50 [17]: > 100 µM (inactive) | GI50 [18]: > 100 µM (inactive) | GI50 [19]: > 100 µM (inactive) | GI50 [20]: > 100 µM (inactive) | GI50 [21]: > 100 µM (inactive) | GI50 [22]: > 100 µM (inactive) | GI50 [23]: > 100 µM (inactive) | GI50 [24]: > 100 µM (inactive) | GI50 [25]: > 100 µM (inactive) | GI50 [26]: > 100 µM (inactive) | GI50 [27]: > 100 µM (inactive) | GI50 [28]: > 100 µM (inactive) | GI50 [29]: > 100 µM (inactive) | GI50 [30]: > 100 µM (inactive) | GI50 [31]: > 100 µM (inactive) | GI50 [32]: > 100 µM (inactive) | GI50 [33]: > 100 µM (inactive) | GI50 [34]: > 100 µM (inactive) | GI50 [35]: > 100 µM (inactive) | GI50 [36]: > 100 µM (inactive) | GI50 [37]: > 100 µM (inactive) | GI50 [38]: > 100 µM (inactive) | GI50 [39]: > 100 µM (inactive) | GI50 [40]: > 100 µM (inactive) | GI50 [41]: > 100 µM (inactive) | GI50 [42]: > 100 µM (inactive) | GI50 [43]: > 100 µM (inactive) | GI50 [44]: > 100 µM (inactive) | GI50 [45]: > 100 µM (inactive) | GI50 [46]: > 100 µM (inactive) | GI50 [47]: > 100 µM (inactive) | GI50 [48]: > 100 µM (inactive) | GI50 [49]: > 100 µM (inactive) | GI50 [50]: > 100 µM (inactive) | GI50 [51]: > 100 µM (inactive) | GI50 [52]: > 100 µM (inactive) | GI50 [53]: > 100 µM (inactive) | GI50 [54]: > 100 µM (inactive) | GI50 [55]: > 100 µM (inactive) | GI50 [56]: > 100 µM (inactive) | GI50 [57]: > 100 µM (inactive)
